Measured values: patent publication US12486259B2, “FXR agonist having pyrazine structure, and preparation method and use” (JIANGSU TASLY DIYI PHARMACEUTICAL CO., LTD., priority 2020, dated 2025)

Tested on: C57/BL6 mice fed MCD diet
Assay: Pharmacodynamic test in methionine-choline deficient diet (MCD) model of non-alcoholic fatty liver disease
Type: in vivo
Conditions: for Weight, 0 week / Food intake, 1 week / Weight, 1 week / Food intake, 2 weeks / Weight, 2 weeks / Food intake, 3 weeks / Weight, 3 weeks / Food intake, 4 weeks / Weight, 4 week / liver weight / liver/body weight / ALT, 3 weeks / AST, 3 weeks / ALT, 4 weeks / AST, 4 weeks / HDL (blood lipid) / LDL (blood lipid) / TC (blood lipid) / TG (blood lipid) / HE score / Sirius red staining area / liver TC / liver TG: MCD mice, obeticholic acid 40 mpk; for Weight, 0 week / Weight, 1 week / Weight, 2 weeks / Weight, 3 weeks / Weight, 4 week: TM compounds 30 mpk, once daily by gavage; for Food intake, 1 week / Food intake, 2 weeks / Food intake, 3 weeks / Food intake, 4 weeks / liver weight / liver/body weight / ALT, 3 weeks / AST, 3 weeks / ALT, 4 weeks / AST, 4 weeks / HDL (blood lipid) / LDL (blood lipid) / TC (blood lipid) / TG (blood lipid) / HE score / Sirius red staining area / liver TC / liver TG: TM 30 mpk; for Food intake, 1 week / Food intake, 2 weeks / Food intake, 3 weeks / Food intake, 4 weeks / ALT, 3 weeks / AST, 3 weeks / ALT, 4 weeks / AST, 4 weeks: gavage; for Food intake, 4 weeks / Weight, 4 week / ALT, 4 weeks / AST, 4 weeks / HE score / Sirius red staining area: 4 weeks; for liver weight / liver/body weight / HDL (blood lipid) / LDL (blood lipid) / TC (blood lipid) / TG (blood lipid) / liver TC / liver TG: after 4 weeks; for ALT, 3 weeks / AST, 3 weeks / ALT, 4 weeks / AST, 4 weeks / HDL (blood lipid) / LDL (blood lipid) / TC (blood lipid) / TG (blood lipid): blood; for HE score: liver pathology score (Table 12 criteria); for Sirius red staining area / liver TC / liver TG: liver; for blood lipid levels (in words) / liver triglyceride and cholesterol content (in words) / liver weight and liver/body weight (in words): after 4 weeks of MCD and compounds treatment; for ALT and AST compared to the model group (in words): three weeks after MCD and compounds treatment
Experimental: Animal strain: C57/BL6, Animal Grade: SPF Grade, Gender: male, Animal Age: 8 weeks old, Animals Received Date: 2018 Sep. 28, Animal Source: Shanghai Lingchang Biotechnology Co. Ltd., Animal Certificate No: SCXK (Shanghai)2013-0018 2013001836799, Mouse feeding Environment: temperature 20-26° C., humidity 40-70%, 12 hour day and night cycle.
5% Solutol HS15/Normal saline: after Solutol HS15 (polyethylene glycol 15 hydroxystearate solubilizer) is dissolved in a water bath at 37° C., 5 ml of it is dissolved in 100 ml of normal saline, thoroughly stirred for later use.
Obeticholic acid/5% Solutol HS15/Normal saline: 0.15 ml Solutol HS15 is added to accurately weighed 12 mg obeticholic acid to fully dissolve it, and 2.85 ml normal saline is added, vigorously mixed and dissolved by the ultrasound. • TM-01 Group/5% Solutol HS15/Normal saline: 2.5 ml of 6 mg/ml TM-01 suspension is taken, 2.5 ml of 5% Solutol HS15/normal saline is added, and the mixture is mixed well. • TM-02 Group/5% Solutol HS15/Normal saline: 2.5 ml of 6 mg/ml TM-02 suspension is taken, 2.5 ml of 5% Solutol HS15/normal saline is added, and the mixture is mixed well. • TM-06 Group/5% Solutol HS15/Normal saline: 2.5 ml of 6 mg/ml TM-06 suspension is taken, 2.5 ml of 5% Solutol HS15/Normal saline is added, and the mixture is mixed well. • TM-09 Group/5% Solutol HS15/Normal saline: 2.5 ml of 6 mg/ml TM-09 suspension is taken, 2.5 ml of 5% Solutol HS15/Normal saline is added, and the mixture is mixed well.
Menstruum and test compounds are administered by gavage at a dose volume of 10 ml/kg;
After reaching the animal house, 70 8-week-old C57/BL6 mice are fed adaptively and randomly divided into 7 groups according to body weight after the average body weight reaches 23 g. They are given the model feed. The first group receives the control diet MCS and the remaining groups receive the MCD diet, while each group of mice receives compound treatment as follows: • Group 1. Control Group: MCS, menstruum, administered once daily by gavage; • Group 2. Model Group: MCD, menstruum, administered once daily by gavage; • Group 3. Obeticholic acid group: MCD, 40 mpk obeticholic acid, administered once daily by gavage; • Group 4. TM-01 Group: MCD, 30 mpk TM-01, administered once daily by gavage; • Group 5. TM-02 Group: MCD, 30 mpk TM-02, administered once daily by gavage; • Group 6. TM-06 Group: MCD, 30 mpk TM-06, administered once daily by gavage; • Group 7. TM-09 Group: MCD, 30 mpk TM-09, administered once daily by gavage; 2.4 Experimental Methods
Body weight and food intake are measured weekly during the experiment. Twenty-one days after administration, tail tips are bled with microcapillaries for AST, ALT measurements. Twenty-eight days after administration, mice are terminated, hearts are bled, and liver tissues are collected and weighed. One portion is snap frozen with liquid nitrogen for subsequent analysis and the other portion are fixed for pathological analysis.
Mouse blood is centrifuged at 5000 rpm for 10 minutes and supernatants are collected for determination of TG (triglycerides), TC (total cholesterol), HDL (high density lipoprotein), LDL (low density lipoprotein), AST (aspartate aminotransferase) and ALT (alanine aminotransferase).
AST and ALT after administration for three and four weeks are determined according to the instructions of kit. The blood lipid index 4 weeks after administration is sent to Adicon Medical Laboratory Co. Ltd. for detection.
The livers are removed from −80° C., homogenized in PBS (phosphate buffered saline), extracted with chloroform methanol organic phase, and subjected to TC and TG assays using the kit, normalized for protein content.
Four weeks after administration, the mice are anesthetized. The heart is bled, the liver is isolated and weighed. The right lobe is snapfrozen with liquid nitrogen and stored at −80° C. for liver lipid analysis. The left lobe is isolated and fixed in 10% formalin for subsequent HE and Sirius Red staining. […]

Weight, 0 week	Food intake, 1 week	Weight, 1 week	Food intake, 2 weeks	Weight, 2 weeks	Food intake, 3 weeks	Weight, 3 weeks	Food intake, 4 weeks	Weight, 4 week	SMILES	liver weight	liver/body weight	ALT, 3 weeks	AST, 3 weeks	ALT, 4 weeks	AST, 4 weeks	HDL (blood lipid)	LDL (blood lipid)	TC (blood lipid)	TG (blood lipid)	HE score	further results
23.71 ± 0.35 g	2.190 ± 0.504 g	21.52 ± 0.42 g	2.400 ± 0.288 g	18.81 ± 0.49 g	1.688 ± 0.266 g	16.69 ± 0.34 g	1.518 ± 0.376 g	15.48 ± 0.35 g	O=C(O)c1cccc(N2CC(O)(c3cnc(OCc4c(-c5c(Cl)cccc5Cl)noc4C4CC4)cn3)C2)c1 [TM-02, 3-(3-(5-((5-cyclopropyl-3-(2,6-dichlorophenyl)isoxazol-4-yl)methoxy)pyrazine-2-yl)-3-hydroxyazetidin-1-yl) benzoic acid]	0.85 ± 0.05 g	5.48 ± 0.28 %	183.36 ± 29.85 U/L	113.46 ± 13.79 U/L	90.68 ± 42.13 U/L	83.24 ± 12.08 U/L	0.61 ± 0.02 mmol/L	2.93 ± 0.12 mmol/L	1.25 ± 0.14 mmol/L	0.57 ± 0.06 mmol/L	1.4	Sirius red staining area: 0.398 ± 0.030%; liver TC: 41.7 ± 5.73 µmol/g protein; liver TG: 307 ± 26.3 µmol/g protein; blood lipid levels (in words): different reductions in blood lipids; liver triglyceride and cholesterol content (in words): different lowering effects; liver weight and liver/body weight (in words): significantly increases mouse liver weight and liver/body weight; ALT and AST compared to the model group (in words): showing the same way as the obeticholic acid group
23.75 ± 0.27 g	2.356 ± 0.213 g	21.36 ± 0.27 g	2.664 ± 0.194 g	18.29 ± 0.28 g	2.093 ± 0.250 g	16.41 ± 0.25 g	1.932 ± 0.137 g	15.70 ± 0.22 g	CC(C)c1onc(-c2c(Cl)cccc2Cl)c1COc1cnc(C2(O)CC(c3cccc(C(=O)O)c3)C2)cn1 (stereo not drawn) [TM-06, 3-(3-(5-(5-isopropyl-3-(2,6-dichlorophenyl)isoxazole-4-ylmethoxy)-2-pyrazine)-1-hydroxycyclobutane) benzoic acid]	0.67 ± 0.03 g	4.23 ± 0.13 %	48.97 ± 26.07 U/L	52.14 ± 18.73 U/L	49.13 ± 33.04 U/L	45.23 ± 13.21 U/L	0.42 ± 0.06 mmol/L	3.01 ± 0.09 mmol/L	0.97 ± 0.16 mmol/L	0.59 ± 0.02 mmol/L	1.6	Sirius red staining area: 0.421 ± 0.081%; liver TC: 38.2 ± 35 µmol/g protein; liver TG: 304 ± 46.5 µmol/g protein; blood lipid levels (in words): different reductions in blood lipids; liver triglyceride and cholesterol content (in words): different lowering effects; liver weight and liver/body weight (in words): significantly increases mouse liver weight and liver/body weight; ALT and AST compared to the model group (in words): significantly reduced
23.60 ± 0.29 g	2.364 ± 0.186 g	21.26 ± 0.34 g	2.707 ± 0.187 g	19.29 ± 0.39 g	2.284 ± 0.342 g	17.18 ± 0.31 g	2.109 ± 0.661 g	15.90 ± 0.31 g	Cc1cc(C(=O)O)cc(C2CC(O)(c3cnc(OCc4c(-c5c(Cl)cccc5Cl)noc4C(C)C)cn3)C2)c1 (stereo not drawn) [TM-09, 3-(3-(5-((3-(2,6-dichlorophenyl)-5-isopropylisoxazol-4-yl)methoxy)pyrazine-2-yl)-3-hydroxycyclobutyl)-5-methyl benzoic acid]	0.74 ± 0.04 g	4.98 ± 0.25 %	40.27 ± 21.48 U/L	45.04 ± 12.08 U/L	14.30 ± 4.19 U/L	38.40 ± 4.19 U/L	0.56 ± 0.02 mmol/L	2.52 ± 0.07 mmol/L	0.86 ± 0.09 mmol/L	0.54 ± 0.04 mmol/L	1.1	Sirius red staining area: 0.392 ± 0.057 %; liver TC: 37.7 ± 3.65 µmol/g protein; liver TG: 232 ± 18.4 µmol/g protein; blood lipid levels (in words): different reductions in blood lipids; liver triglyceride and cholesterol content (in words): significant lowering effect on liver triglyceride and cholesterol levels; liver weight and liver/body weight (in words): significantly increases mouse liver weight and liver/body weight; ALT and AST compared to the model group (in words): significantly reduced
23.78 ± 0.47 g	3.011 ± 0.555 g	21.24 ± 0.42 g	2.746 ± 0.466 g	18.49 ± 0.41 g	1.909 ± 0.215 g	16.97 ± 0.38 g	1.697 ± 0.027 g	14.70 ± 0.20 g	O=C(O)c1cccc(C2CC(O)(c3cnc(OCc4c(-c5c(Cl)cccc5Cl)noc4C4CC4)cn3)C2)c1 (stereo not drawn) [TM-01, 3-(3-(5-(5-cyclopropyl-3-(2,6-dichlorophenyl)isoxazole-4-ylmethoxy)-2-pyrazine)-1-hydroxycyclobutane) benzoic acid]	0.89 ± 0.05 g	6.32 ± 0.26 %	41.58 ± 10.32 U/L	53.50 ± 19.62 U/L	14.28 ± 13.21 U/L	40.36 ± 26.31 U/L	0.59 ± 0.11 mmol/L	2.61 ± 0.26 mmol/L	0.95 ± 0.44 mmol/L	0.53 ± 0.10 mmol/L	1	Sirius red staining area: 0.365 ± 0.069 %; liver TC: 34.9 ± 8.2 µmol/g protein; liver TG: 247 ± 54.1 µmol/g protein; blood lipid levels (in words): different reductions in blood lipids; liver triglyceride and cholesterol content (in words): significant lowering effect on liver triglyceride and cholesterol levels; liver weight and liver/body weight (in words): significantly increases mouse liver weight and liver/body weight; ALT and AST compared to the model group (in words): significantly reduced
